Patent US20130171252A1, “Formulation Comprising a Type B Lantibiotic” (NOVACTA […], priority 2010, published 2013)
≈ marks a conversion by molar mass, not a printed value. Like-named read-outs stand apart in the source and are kept apart here.

Experiments:
[1] = Susceptibility to enzymatic digestion in simulated intestinal fluid (FIG. 1); format: in vitro ADME; settings: 37° C., HPLC (FIG. 1)
Experimental: Nisin and the compound of compound 1 were tested for their susceptibility towards enzymatic digestion in the intestine using a simulated intestinal fluid (SIF). The SIF was based on the standard USP solutions for simulated intestinal fluids and its activity was confirmed against Bovine Serum Albumin (Hilger et al, Clin. Exp. Immunol. 2001, 123, 387-94). The compounds were incubated in SIF at 37° C. and their concentrations quantified by analytical HPLC (UV detection at 210 nm using the conditions outlined in Table 1).

[2] = Dissolution testing of the capsule of Example 1 in simulated gastric fluid; format: physicochemical; settings: hard gelatine capsule size 00, 50 mg compound 1, 10 mL SGF, 37° C., stirred
Experimental: A hard gelatine capsule (size 00) was opened into two segments and compound 1 (50 mg) was weighed into the larger segment. The capsule segment containing compound 1 was sealed by inserting and closing the smaller segment over the larger capsule section. A hard gelatine capsule (size 00) containing up to 500 mg can be prepared employing this method.
The capsule of Example 1 was dropped into a 10 mL of simulated gastric fluid (SGF) at 37° C. […] Samples of the solution/suspension (100 μL) were withdrawn at 1, 2, 3, 4, 5, 6, 7, 8, 9, 10, 15, 20, 25, 30 and 70 minutes after the addition of the capsule to SGF.
The samples were clarified using a bench top centrifuge to remove solid from the suspension. The clarified supernatants were diluted with 50% ethanol and then were analysed by HPLC.

[3] = Example 2: solubility and dissolution behaviour from hard gelatin capsule in SGF; format: physicochemical; settings: 50 mg in size 00 hard gelatin capsule, 10 mL SGF, 37° C.
Experimental: The solubility and dissolution behaviour of compound 1 contained in a hard gelatin capsule when suspended in simulated gastric fluid (SGF) has been monitored at 37° C.
Compound 1 (50 mg) was transferred into a size 00 hard gelatin capsule. This capsule represents the lowest dose that is likely to be administered in clinical trials. The capsule was dropped into 10 mL of SGF at 37° C. and the sample was intermittently swirled by hand. Dissolution was monitored visually and by HPLC over a one hour period. For the dissolution experiment monitored by HPLC, the sample was stirred continuously with a magnetic stirrer at 37° C. 100 ul samples were withdrawn from the dissolution experiment and were diluted with 900 ul water. The diluted sample was then centrifuged to remove solid material (mostly gelatin).

[4] = Example 3: solubility in SIF and SGF; format: physicochemical; settings: target 40 mg/ml
Experimental: 10 mg of compound 1 was suspended in […] Simulated Intestinal Fluid (SIF), and was left on a shaker for 10 minutes, after which time suspension was observed. This was in contrast to an identical sample suspended in SGF which dissolved fully after the same period of time. This sample prepared at a target concentration of 40 mg/ml was centrifuged to remove sediment. The supernatant was then diluted to a target of 1 mg/ml with water and compound 1 content was compared against a 1 mg/mL standard prepared in 50% ethanol (aq) using a HPLC method of Example 2.

[5] = Example 4: stability in SIF over 240 minutes (FIG. 4); format: in vitro ADME; settings: 37° C., HPLC
Experimental: Compound 1 was incubated in SIF at 37° C. for up to 240 minutes. Aliquots were withdrawn from the test sample and diluted with water prior to analysis by HPLC (as described in Example 2). The compound 1 peak area was recorded and was expressed as a percentage with respect to the time zero sample.

C. diff strain 027Can = assay: MIC, agar dilution susceptibility testing, C. diff strain 027Can; format: cell-based, Clostridium difficile; settings: Wilkins-Chalgren Anaerobe agar, anaerobic, 37° C., 48 hours, repeat determinations
Experimental: (§1) Susceptibility testing for Clostridium difficile strains was performed by two-fold serial antibiotic dilutions in Wilkins-Chalgren Anaerobe agar under anaerobic conditions. Vancomycin was included as a comparator drug. C. difficile cultures were inoculated onto pre-reduced Braziers (C.C.E.Y.) agar plates and grown at 37° C. for 48 hours under anaerobic conditions. Two to three colonies of the 48 hours cultures were inoculated into 5 ml of pre-reduced Schaedlers Broth and grown at 37° C. for 24 hours under anaerobic conditions. This culture was diluted with pre-reduced 0.9% NaCl to achieve the turbidity of the 0.5 McFarland standard and applied to the drug containing plates at a final inoculum of 10^5 cfu/spot. Drug-free growth control plates were included. The plates were incubated in the anaerobic chamber at 37° C. for 48 hours and examined for growth.

C. diff strain 37779 = assay: MIC, agar dilution susceptibility testing, C. diff strain 37779; format: cell-based, Clostridium difficile; settings: Wilkins-Chalgren Anaerobe agar, anaerobic, 37° C., 48 hours, repeat determinations
Experimental: as §1

C. diff strain 19126 = assay: MIC, agar dilution susceptibility testing, C. diff strain 19126; format: cell-based, Clostridium difficile; settings: Wilkins-Chalgren Anaerobe agar, anaerobic, 37° C., 48 hours, repeat determinations
Experimental: as §1

C. diff strain B32 = assay: MIC, agar dilution susceptibility testing, C. diff strain B32; format: cell-based, Clostridium difficile; settings: Wilkins-Chalgren Anaerobe agar, anaerobic, 37° C., 48 hours
Experimental: as §1

C. diff strain E16 = assay: MIC, agar dilution susceptibility testing, C. diff strain E16; format: cell-based, Clostridium difficile; settings: Wilkins-Chalgren Anaerobe agar, anaerobic, 37° C., 48 hours
Experimental: as §1

C. diff strain P24 = assay: MIC, agar dilution susceptibility testing, C. diff strain P24; format: cell-based, Clostridium difficile; settings: Wilkins-Chalgren Anaerobe agar, anaerobic, 37° C., 48 hours
Experimental: as §1

C. diff strain 027SM = assay: MIC, agar dilution susceptibility testing, C. diff strain 027SM; format: cell-based, Clostridium difficile; settings: Wilkins-Chalgren Anaerobe agar, anaerobic, 37° C., 48 hours
Experimental: as §1

C. diff strain P62 = assay: MIC, agar dilution susceptibility testing, C. diff strain P62; format: cell-based, Clostridium difficile; settings: Wilkins-Chalgren Anaerobe agar, anaerobic, 37° C., 48 hours
Experimental: as §1

C. diff strain E101 = assay: MIC, agar dilution susceptibility testing, C. diff strain E101; format: cell-based, Clostridium difficile; settings: Wilkins-Chalgren Anaerobe agar, anaerobic, 37° C., 48 hours
Experimental: as §1

C. diff strain E4 = assay: MIC, agar dilution susceptibility testing, C. diff strain E4; format: cell-based, Clostridium difficile; settings: Wilkins-Chalgren Anaerobe agar, anaerobic, 37° C., 48 hours
Experimental: as §1

C. diff strain P49 = assay: MIC, agar dilution susceptibility testing, C. diff strain P49; format: cell-based, Clostridium difficile; settings: Wilkins-Chalgren Anaerobe agar, anaerobic, 37° C., 48 hours
Experimental: as §1

C. diff strain P59 = assay: MIC, agar dilution susceptibility testing, C. diff strain P59; format: cell-based, Clostridium difficile; settings: Wilkins-Chalgren Anaerobe agar, anaerobic, 37° C., 48 hours
Experimental: as §1

C. diff strain 630 = assay: MIC, agar dilution susceptibility testing, C. diff strain 630; format: cell-based, Clostridium difficile; settings: Wilkins-Chalgren Anaerobe agar, anaerobic, 37° C., 48 hours, repeat determinations
Experimental: as §1

Q: With `CCC(C)[C@@H]1NC(=O)C2NC(=O)[C@H](CC(C)C)NC(=O)[C@H](NC(=O)[C@H]3CSC[C@H](N)C(=O)N[C@@H](CO)C(=O)NCC(=O)N[C@@H](Cc4c[nH]c5ccccc45)C(=O)N[C@@H](C(C)C)C(=O)N3)[C@H](C)SC[C@H](NC(=O)[C@H](CCC(=O)O)NC1=O)C(=O)NCC(=O)N[C@@H]1C(=O)N[C@@H](CC(C)C)C(=O)N[C@@H](C(C)C)C(=O)N[C@@H](CS[C@H]2C)C(=O)N[C@@H](C)C(=O)N[C@H](C(=O)NCCCCCCCN)CS[C@H]1C` (stereo partly shown) [Compound 1, Deoxyactagardine B (1,7-diaminoheptane) monocarboxamide] as the compound, how does the “stability in SIF” value [1] read?
A: essentially stable

Q: What about the “time to complete release from the capsule into SGF” value [2] of the same compound?
A: ≤ 4 min

Q: And the “dissolution time in SGF” value [3]?
A: ≤ 3 min

Q: What about the “time in which the bulk dissolves in SGF” value [3] of the same compound?
A: less than 5 minutes

Q: And the “time to reach saturation dissolution in SGF” value ([3]; HPLC (FIG. 3))?
A: 3 min

Q: What about the solubility at 10 min ([4]; SGF, 10 minutes on shaker, read-out: solubility in SGF) of the same compound?
A: 40 mg/mL (≈ 20.1 mM)

Q: And the solubility at 10 min ([4]; Simulated Intestinal Fluid (SIF), Simulated Intestinal Fluid pH 6.8, 10 minutes on shaker, supernatant by HPLC, read-out: solubility in SIF)?
A: < 0.8 mg/mL

Q: What about the “peak area as percentage with respect to the time zero sample” value [5] of the same compound?
A: no significant reduction

Q: For “Deoxyactagardine B (1,9-diaminononane) monocarboxamide [Compound 7]”, which MIC (C. diff strain 027Can; listed as Comp 7) is on record?
A: 0.5 µg/mL

Q: For deoxyactagardine B [DAB], which MIC (C. diff strain 37779) is on record?
A: 4 µg/mL

Q: What about the MIC (C. diff strain 19126) of the same compound?
A: 4 µg/mL

Q: What about the MIC (C. diff strain B32) of the same compound?
A: 2 µg/mL

Q: And the MIC (C. diff strain E16)?
A: 2 µg/mL

Q: What about the MIC (C. diff strain P24) of the same compound?
A: 2 µg/mL

Q: And the MIC (C. diff strain 027SM)?
A: 2 µg/mL

Q: And the MIC (C. diff strain P62)?
A: 2 µg/mL

Q: And the MIC (C. diff strain E101)?
A: 2 µg/mL

Q: And the MIC (C. diff strain 027Can)?
A: 4 µg/mL

Q: What about the MIC (C. diff strain E4) of the same compound?
A: 2 µg/mL

Q: What about the MIC (C. diff strain P49) of the same compound?
A: 2 µg/mL

Q: What about the MIC (C. diff strain P59) of the same compound?
A: 2 µg/mL

Q: What about the MIC (C. diff strain 630) of the same compound?
A: 4 µg/mL
